Data: US12285012B2, “Compositions comprising pyridine carboxylate herbicides with acetolactate synthase (ALS) inhibitor herbicides” (Corteva Agriscience LLC, priority 2018, dated 2025)
Where “and” joins values, the source holds several entries; their conditions need not be identical. Equal entries are not always repeated. Where two headings read alike, the source gives them in different places.

What was measured:
[1] = system: kochia (KCHSC, Kochia scoparia); assay: Greenhouse postemergence herbicidal effect; format: in vivo
Outline: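 Plants at the second or third true leaf stage received overhead spray at 187 L/ha, with the pyridine carboxylate (plus cloquintocet-mexyl safener) alone or with ALS herbicides in 1.25% v/v crop oil. Rates are in g ae/ha or g ai/ha. Visual injury versus solvent-blank controls was scored 0–100% after 20-22 d in the greenhouse.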

[2] = system: common lambsquarters (CHEAL, Chenopodium album L.); assay: Greenhouse postemergence herbicidal effect; format: in vivo
[3] = system: broad-leaf dock (RUMOB, Rumex obtusifolius); assay: Greenhouse postemergence herbicidal effect; format: in vivo; details: for Obs % visual injury: RUMOB
Description: (§1) Seeds of the desired test plant species were planted in a 90:10% v/v (volume/volume) mixture of PRO-MIX® BX (Premier Tech Horticulture, Quakertown, PA, USA) and PROFILE® GREENS GRADE™ (Profile Products LLC, Buffalo Grove, IL, USA) planting mixture, which typically has a pH of 5.2 to 6.2 and an organic matter content of at least 50 percent, in plastic pots with a surface area of 103.2 square centimeters (cm^2). In some aspects, to ensure good germination and healthy plants, a fungicide treatment and/or other chemical or physical treatment was applied. The plants were grown for 7-36 days (d) in a greenhouse with an approximate 14-hour (h) photo-period which was maintained at about 23° C. during the day and 22° C. during the night. Nutrients and water were added on a regular basis and supplemental lighting was provided with overhead metal halide 1000-Watt lamps as necessary. The plants were employed for testing when they reached the second or third true leaf stage.
(§2) Emulsifiable concentrates of each of each pyridine carboxylate herbicide (Compound A or Compound B) were prepared at 100 grams acid equivalent per liter (g ae/L). The emulsifiable concentrates also included a safener, cloquintocet-mexyl, at 120 grams active ingredient per liter (g ai/L), unless otherwise noted below. An aliquot of each emulsifiable concentrate was placed in a 25 mL glass vial and diluted with an aqueous mixture of 1.25% (v/v) ACTIROB® B esterified rapeseed oil (Bayer Crop Science, Research Triangle Park, NC, USA) or MSO® Concentrate with LECI-TECH® methylated soybean oil (Loveland Products, Loveland, CO, USA) to obtain concentrated stock solutions at the highest application rate for each herbicide, based upon a 12 milliliter (mL) application volume at a rate of 187 liters per hectare (L/ha). The concentrated stock solutions were further diluted with an aqueous mixture of 1.25% v/v ACTIROB® B or MSO® Concentrate with LECI-TECH® to obtain stock solutions at reduced application rates for each herbicide. Spray solutions of the herbicide combinations (Compound A or Compound B plus ALS herbicide) were prepared by adding weighed amounts or aliquots of the ALS herbicides to the stock solutions of Compound A or Compound B to form 12-mL spray solutions in two- or three-way combinations.
(§3) The spray solutions were applied to the plant material with an overhead Mandel track sprayer equipped with 8002E nozzles calibrated to deliver 187 L/ha over an application area of 0.503 square meters (m^2) at a spray height of 18 inches (43 centimeters (cm)) above the average plant canopy. Control plants were sprayed in the same manner with the solvent blank. All pyridine carboxylate herbicide (component a) application rates are given as “g ae/ha” and all ALS inhibitor (component b) application rates are given as “g ai/ha.”
(§4) The treated plants and control plants were placed in a greenhouse as described above and watered by sub-irrigation to prevent wash-off of the test compounds. After 20-22 d, the condition of the test plants as compared with that of the control plants was determined visually and scored on a scale of 0 to 100 percent where 0 corresponds to no injury and 100 corresponds to complete kill.

[4] = system: large crabgrass (DIGSA, Digitaria sanguinalis); assay: Greenhouse postemergence herbicidal effect; format: in vivo; details: for Obs % visual injury: DIGSA
Description: as §1, §2, §3, §4

[5] = system: soybean (GLXMA, Glycine max); assay: Greenhouse postemergence herbicidal effect; format: in vivo
Description: as §1, §2, §3, §4

[6] = system: common sunflower (HELAN, Helianthus annuus); assay: Greenhouse postemergence herbicidal effect; format: in vivo
Description: as §1, §2, §3, §4

[7] = system: velvetleaf (ABUTH, Abutilon theophrasti); assay: Greenhouse postemergence herbicidal effect; format: in vivo
Description: as §1, §2, §3, §4

[8] = system: ivyleaf morningglory (IPOHE, Ipomoea hederacea); assay: Greenhouse postemergence herbicidal effect; format: in vivo
Description: as §1, §2, §3, §4

[9] = system: cleavers (GALAP, Galium aparine); assay: Greenhouse postemergence herbicidal effect; format: in vivo
Outline: (§5)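 Visual injury ratings (0 = no injury, 100 = complete kill) were taken 20–22 d after treatment relative to solvent-blank controls. Applications were made to plants at the second or third true leaf stage, using emulsifiable concentrates with cloquintocet-mexyl safener.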

[10] = system: ivyleaf speedwell (VERHE, Veronica hederifolia); assay: Greenhouse postemergence herbicidal effect; format: in vivo
Outline: as §5

[11] = system: cornflower (CENCY, Cyanus segetum); assay: Greenhouse postemergence herbicidal effect; format: in vivo
Outline: as §5

[12] = system: winter wheat (TRZAW); assay: Greenhouse postemergence crop phytotoxicity; format: in vivo, Triticum aestivum
Description: as §1
as §2, with “combinations. […]” for “combinations.”
as §4

[13] = Bassia scoparia, post-emergence, 10 g/ha, read-out: % visual injury, Obs
[14] = Compound A 10 g/ha (Examples 62-63)
[15] = Compound A 10 g/ha, safener mefenpyr-diethyl

## C#CCOC(=O)c1nc(-c2ccc3cc[nH]c3c2F)c(F)c(N)c1Cl [Compound B, propargyl 4-amino-3-chloro-5-fluoro-6-(7-fluoro-1H-indol-6-yl)pyridine-2-carboxylate]
[1]; [13]
  pest or weed control at 10 g/ha: 73%
[1]; KCHSC, Compound B 5 g/ha
  Obs % visual injury: 60%
[1]; KCHSC, Compound B 10 g/ha
  Obs % visual injury: 65%
[1]; KCHSC, Compound B (without cloquintocet-mexyl safener) 10 g/ha
  Obs % visual injury: 96%
[2]; 10 g/ha
  % visual injury, Obs: 93%
[2]; CHEAL, Compound B 5 g/ha
  Obs % visual injury: 96%
[2]; CHEAL, Compound B 10 g/ha
  Obs % visual injury: 94% and 96%
[3]; 10 g/ha
  % visual injury, Obs: 15%
[3]; Compound B 5 g/ha
  Obs % visual injury: 23%
[3]; Compound B 10 g/ha
  Obs % visual injury: 18%
[4]; Compound B 5 g/ha
  Obs % visual injury: 50%
[4]; Compound B 10 g/ha
  Obs % visual injury: 63%
[5]; 10 g/ha
  % visual injury, Obs: 73%
[6]; 10 g/ha
  % visual injury, Obs: 100%
[7]; 10 g/ha
  % visual injury, Obs: 68%
[8]; 10 g/ha
  % visual injury, Obs: 0%

## N#CCOC(=O)c1nc(-c2ccc3cc[nH]c3c2F)c(F)c(N)c1Cl [Compound A, cyanomethyl 4-amino-3-chloro-5-fluoro-6-(7-fluoro-1H-indol-6-yl)pyridine-2-carboxylate]
[9]; Compound A 10 g/ha
  % visual injury: 25%
[9]; Compound A 15 g/ha
  % visual injury: 35%
[10]; Compound A 10 g/ha
  % visual injury: 80%
[10]; Compound A 15 g/ha
  % visual injury: 80%
[11]; Compound A 10 g/ha
  % visual injury: 93%
[11]; Compound A 15 g/ha
  % visual injury: 95%
[1]; [13]
  pest or weed control at 10 g/ha: 68%
[1]; Bassia scoparia, post-emergence, Compound A 10 g/ha, read-out: % visual injury, Obs
  pest or weed control at 10 g/ha: 65%
[1]; Bassia scoparia, post-emergence, Compound A 10 g/ha, safener mefenpyr-diethyl, read-out: % visual injury, Obs
  pest or weed control at 10 g/ha: 70%
[1]; Bassia scoparia, post-emergence, KCHSC, Compound A 10 g/ha, read-out: % visual injury, Obs
  pest or weed control at 10 g/ha: 68%
[1]; Bassia scoparia, post-emergence, KCHSC, Compound A 15 g/ha, read-out: % visual injury, Obs
  pest or weed control at 15 g/ha: 68%
[1]; Compound A 10 g/ha
  % visual injury: 75% and 63% and 70% and 68%
  % visual injury Obs: 68% and 58% and 70%
[1]; [14]
  KCHSC % visual injury Obs: 65%
[1]; [15]
  KCHSC % visual injury Obs: 70%
[1]; Compound A 15 g/ha
  % visual injury: 75% and 68%
  % visual injury Obs: 68%
[1]; KCHSC, Compound A 10 g/ha
  Obs % visual injury: 68% and 70% and 65%
[1]; KCHSC, Compound A 10 g/ha (Table 65)
  Obs % visual injury: 65%
[1]; KCHSC, Compound A 10 g/ha (Table 66)
  Obs % visual injury: 70%
[1]; KCHSC, Compound A 10 g/ha (Table 67)
  Obs % visual injury: 70%
[1]; KCHSC, Compound A 15 g/ha
  Obs % visual injury: 68%
[1]; KCHSC, Compound A 15 g/ha (Table 67)
  Obs % visual injury: 70%
[2]; 10 g/ha
  % visual injury, Obs: 83% and 90% and 78%
[2]; CHEAL, Compound A 10 g/ha
  % visual injury, Obs: 78% and 83%
  Obs % visual injury: 78% and 80% and 88%
[2]; CHEAL, Compound A 10 g/ha (Table 65)
  Obs % visual injury: 88%
[2]; CHEAL, Compound A 10 g/ha (Table 66)
  Obs % visual injury: 78%
[2]; CHEAL, Compound A 10 g/ha (Table 67)
  Obs % visual injury: 78%
[2]; CHEAL, Compound A 15 g/ha
  % visual injury, Obs: 85%
  Obs % visual injury: 85%
[2]; CHEAL, Compound A 15 g/ha (Table 67)
  Obs % visual injury: 83%
[2]; Compound A 10 g/ha
  % visual injury: 93% and 78%
  % visual injury Obs: 78% and 83% and 80%
  % visual injury, Obs: 88%
[2]; [14]
  CHEAL % visual injury Obs: 88%
[2]; [15]
  % visual injury, Obs: 100%
  CHEAL % visual injury Obs: 100%
[2]; Compound A 15 g/ha
  % visual injury: 85%
  % visual injury Obs: 85%
[12]; Compound A 10 g/ha
  % visual injury: 0%
[12]; Compound A 15 g/ha
  % visual injury: 0%
[3]; [15]
  % visual injury, Obs: 20%
  RUMOB % visual injury Obs: 20%
[4]; 10 g/ha
  % visual injury, Obs: 0%
[4]; [15]
  % visual injury, Obs: 10%
  DIGSA % visual injury Obs: 10%
[5]; [15]
  % visual injury, Obs: 95%
  GLXMA % visual injury Obs: 95%
[6]; Compound A 10 g/ha
  % visual injury: 89%
[6]; [15]
  % visual injury, Obs: 98%
  HELAN % visual injury Obs: 98%
[7]; 10 g/ha
  % visual injury, Obs: 48%
[7]; [15]
  % visual injury, Obs: 73%
  ABUTH % visual injury Obs: 73%
[8]; Compound A 10 g/ha
  % visual injury: 25%
[8]; [15]
  % visual injury, Obs: 5%
  IPOHE % visual injury Obs: 5%

## COc1ncc(F)c2nc(S(=O)(=O)Nc3c(F)cccc3F)nn12 [Florasulam, florasulam]
[9]; Florasulam 5 g/ha
  % visual injury: 95%
[10]; Florasulam 5 g/ha
  % visual injury: 5%
[11]; Florasulam 5 g/ha
  % visual injury: 70%
[1]; Florasulam 3.75 g/ha
  % visual injury Obs: 70%
[1]; Florasulam 5 g/ha
  % visual injury: 95%
[2]; Florasulam 3.75 g/ha
  % visual injury Obs: 0%
[12]; Florasulam 5 g/ha
  % visual injury: 0%
